Data as given in patent US11617740B2, “Chemical inhibitors of Mycobacterium tuberculosis DosRST signaling and persistence” (priority 2017, dated 2023).
Values after ≈ are worked out from the molar mass of the structure shown. “Also recorded” adds a separate entry of the source. Like-named read-outs stand apart in the source and are kept apart here.

Assays:
[1] = system: DosRST pathway, CDC1551 (hspX′::GFP) reporter strain; assay: microbe, parasite or virus in culture; assay type: cell-based
DosR regulon = assay type: cell-based; conditions: WT CDC1551, 40 μM; for genes from dosR regulon inhibited: >2-fold, q<0.05
TAG accumulation in Mtb = assay type: cell-based; conditions: 40 μM, 6 d, vs DMSO treated WT
[2] = system: DosR-regulated genes hspX and tgs1; assay type: cell-based; conditions: for inhibition of hspX following DETA-NONOate treatment / inhibition of tgs1 following DETA-NONOate treatment / inhibition of hspX transcripts following vitamin C treatment / inhibition of tgs1 transcripts following vitamin C treatment: pretreated 24 h; for inhibition of hspX following DETA-NONOate treatment / inhibition of tgs1 following DETA-NONOate treatment: DETA-NONOate 2 h; for inhibition of hspX transcripts following vitamin C treatment / inhibition of tgs1 transcripts following vitamin C treatment: vitamin C 2 h; for induction of hspX by the inducer / induction of tgs1 by the inducer: 2 h induction
DosS = DosS (Mycobacterium tuberculosis, UniProt P9WGK3); assay: DosS autophosphorylation assay; assay type: biochemical; conditions: 10-40 μM; HC103A 40 μM
DosS, sequence (P9WGK3 whole entry): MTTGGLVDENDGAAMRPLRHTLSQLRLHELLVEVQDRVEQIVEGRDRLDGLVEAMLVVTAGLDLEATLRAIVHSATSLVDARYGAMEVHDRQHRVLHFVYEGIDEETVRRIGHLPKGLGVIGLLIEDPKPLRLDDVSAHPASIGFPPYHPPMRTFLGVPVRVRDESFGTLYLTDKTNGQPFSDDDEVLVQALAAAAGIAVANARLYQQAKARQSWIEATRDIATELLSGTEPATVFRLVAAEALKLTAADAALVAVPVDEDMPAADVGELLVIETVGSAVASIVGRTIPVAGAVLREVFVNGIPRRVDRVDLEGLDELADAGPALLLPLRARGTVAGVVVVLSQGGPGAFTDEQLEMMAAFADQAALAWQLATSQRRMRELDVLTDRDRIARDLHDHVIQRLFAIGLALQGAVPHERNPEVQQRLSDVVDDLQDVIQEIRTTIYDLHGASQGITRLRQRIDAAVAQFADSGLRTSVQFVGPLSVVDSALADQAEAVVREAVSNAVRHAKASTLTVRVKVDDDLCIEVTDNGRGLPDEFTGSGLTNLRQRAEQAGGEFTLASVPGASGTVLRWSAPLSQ
Method: Autophosphorylation assay. The DosS autophosphorylation assay was performed as previously described. DosS protein was treated with 10 μM, 20 μM or 40 μM of HC104A, or HC106A. DMSO and 40 μM HC103A were also included as […].

[3] = system: DosR regulated genes dosR, hspX, tgs1; assay type: cell-based; conditions: for inhibition of hspX and tgs1 gene expression during hypoxia: 10 μM, real-time PCR; for downregulation of dosR / downregulation of hspX / downregulation of tgs1: 40 μM, 6 d, in vitro
[4] = system: DosR-controlled genes hspX and tgs1; assay type: cell-based; conditions: 40 μM, 48 h, infected macrophages
DosR = DosR (Mycobacterium tuberculosis, UniProt P9WMF9); assay: Electrophoretic mobility shift assay (EMSA), DosR binding of hspX promoter DNA; conditions: for impact on DosR binding of DNA (words): 1-80 μM
DosR, sequence (P9WMF9 whole entry, looked up): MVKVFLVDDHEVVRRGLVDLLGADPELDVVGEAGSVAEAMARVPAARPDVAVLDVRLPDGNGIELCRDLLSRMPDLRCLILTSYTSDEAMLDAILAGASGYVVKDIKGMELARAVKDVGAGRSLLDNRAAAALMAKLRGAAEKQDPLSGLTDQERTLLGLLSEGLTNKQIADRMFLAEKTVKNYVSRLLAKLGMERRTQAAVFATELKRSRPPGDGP

Mtb = assay type: cell-based, Mycobacterium tuberculosis
Mtb CDC1551 = assay type: cell-based; conditions: for survival relative to DMSO control during NRP: 40 μM, 10 days
[5] = not given; remark: listed apart in the source
[6] = system: DosRST signaling, CDC1551 (hspX′::GFP); assay: microbe, parasite or virus in culture; assay type: cell-based
[7] = system: DosR-regulated genes hspX and tgs1; assay type: cell-based; conditions: 20 μM, 6 d
[8] = Mycobacterium tuberculosis, 144 h, CDC1551 (hspX′::GFP), 6 d, read-out: EC50 of DosRST-dependent GFP fluorescence inhibition (FI)
[9] = Mycobacterium tuberculosis, Table 3, HC104 series, whole cell assay, read-out: EC50

O=C(Nc1ccno1)Nc1ccno1 [MSU-39444, 1,3-bis(1,2-oxazol-5-yl)urea]
EC50 ([1]; CDC1551 (hspX′::GFP), 6 d, read-out: EC50 of DosRST-dependent GFP fluorescence inhibition (FI)): ~2000 nM | EC50 [1, 8]: 1700 nM

O=C(Nc1ccc(Cl)nc1)Nc1ccno1 [MSU-39448, 1-(6-chloropyridin-3-yl)-3-(1,2-oxazol-5-yl)urea]
melting point: 158 to 159 °C

CN(C)CCCN1C(=O)c2cccc3c(Br)ccc(c23)C1=O [HC104A]
additional genes repressed that were not repressed in CDC1551(ΔdosR) (DosR regulon): 119 genes | genes from dosR regulon inhibited (DosR regulon): 26 genes | reduction of TAG accumulation (TAG accumulation in Mtb): ~50% | EC50 [1, 8]: 9800 nM | EC50 [1, 9]: 9800 nM | inhibition of hspX following DETA-NONOate treatment [2]: 302 fold | inhibition of tgs1 following DETA-NONOate treatment [2]: 6.6 fold | inhibition of hspX transcripts following vitamin C treatment [2]: 3.4 fold | inhibition of tgs1 transcripts following vitamin C treatment [2]: no effect | effect on DosS autophosphorylation (DosS): no inhibitory activity; also recorded: inhibitory activity was not observed; also recorded: no effect | inhibition of hspX and tgs1 gene expression during hypoxia [3]: strongly inhibited | downregulation of dosR [3]: 6 fold | downregulation of hspX [3]: 570 fold | downregulation of tgs1 [3]: 13 fold | inhibition of hspX induction [4]: 185 fold | inhibition of tgs1 induction [4]: 10 fold | concentration at which inhibition of DosR DNA binding begins (DosR; 2 μM DosR, doses 1-80 μM): 10 µM | % free DNA (DosR; 20 μM, 2 μM DosR): 72% | % free DNA (DosR; 30 μM, 2 μM DosR): 89% | % free DNA (DosR; 40 μM, 2 μM DosR): 92% | inhibition of DosR DNA binding compared to DMSO (DosR; 40 μM, 2 μM DosR): ~22 fold | % free DNA (DosR; 60 μM, 2 μM DosR): 96% | % free DNA (DosR; 80 μM, 2 μM DosR (normalised as 100%)): 100% | IC50 (DosR; preliminary, data not shown, read-out: IC50 for inhibition of DosR-DNA binding): ~10000 nM | impact on Mtb growth (Mtb): minimal impact | survival relative to DMSO control during NRP (Mtb CDC1551): no impact on Mtb survival

CC(C)(C)c1ccc(NC(=O)Nc2ccno2)cc1 [MSU-41442, 1-(4-tert-butylphenyl)-3-(1,2-oxazol-5-yl)urea]
solubility (physchem): > 100 µM | melting point: 163 °C

O=C(Nc1ccon1)Nc1ccc(Cl)cc1Cl [HC106C]
activity in the whole cell Mtb reporter assay [1]: no activity

NCCN(CCN)/[N+]([O-])=N/O [DETA-NONOate, reference compound]
induction of hspX by the inducer [2]: 3024 fold | induction of tgs1 by the inducer [2]: 113 fold

O=C(NCc1ccccc1)Nc1ccno1 [MSU-41462, 1-benzyl-3-(1,2-oxazol-5-yl)urea]
melting point: 128 to 130 °C

COc1ccc(NC(=O)Nc2ccno2)cc1 [MSU-39447, 1-(4-methoxyphenyl)-3-(1,2-oxazol-5-yl)urea]
solubility (physchem): > 100 µM | EC50 [1, 8]: 610 nM | melting point: 166 to 167 °C

CN1C(=O)c2cccc3c(Br)ccc(c23)C1=O [HC104G]
fold less active than HC104A [1]: ~10 fold | EC50 [1, 9]: 43800 nM | fold less active than HC104A ([1]; whole cell assay): ~5 fold

O=C(Nc1ccc(Br)cc1)Nc1ccno1 [MSU-41464, 1-(4-bromophenyl)-3-(1,2-oxazol-5-yl)urea]
Microsomes (% remaining @ 30 minutes) ([5]; 30 minutes): 109% remaining | melting point: 183 to 184 °C

COC(=O)c1ccc(NC(=O)Nc2ccno2)cc1 [MSU-41465, methyl 4-{[(1,2-oxazol-5-yl)carbamoyl]amino}benzoate]
Microsomes (% remaining @ 30 minutes) ([5]; microsomes, 0.5 h): 73 % remaining | melting point: 194 °C

O=C(O)CCCN1C(=O)c2cccc3cccc(c23)C1=O [virstatin, reference compound]
activity in the whole cell Mtb reporter assay [1]: did not have any impact on DosRST signaling; also recorded: nor did virstatin inhibit the DosRST pathway; also recorded: not effect | impact on DosR binding of DNA (words) (DosR; 2 μM DosR): no impact on DosR binding of DNA | impact on DosR binding of DNA (words) (DosR; 2 μM DosR, listed as Virstatin): did not impact DosR binding of promoter DNA

O=C(NCCc1ccccc1)Nc1ccno1 [MSU-42004, 3-(1,2-oxazol-5-yl)-1-(2-phenylethyl)urea]
melting point: 165 °C

O=C(Nc1ccc(COc2ccccc2)cc1)Nc1ccno1 [MSU-41545, 3-(1,2-oxazol-5-yl)-1-[4-(phenoxymethyl)phenyl]urea]
melting point: 164 °C

O=C(Nc1ccccc1)Nc1ccno1 [MSU-33189, 3-(1,2-oxazol-5-yl)-1-phenylurea]
EC50 [1, 8]: 630 nM

O=C(Nc1ccc(Cl)c(Cl)c1)Nc1ccno1 [MSU-39452, 1-(3,4-dichlorophenyl)-3-(1,2-oxazol-5-yl)urea]
melting point: 164 °C

CN(C)CCCN1C(=O)c2cccc3cccc(c23)C1=O [HC104B]
activity in the whole cell Mtb reporter assay [1]: complete loss of activity | EC50 [1, 9]: > 200000 nM

O=C(Nc1cccc(O)c1)c1cccc(NC(=O)c2cccs2)c1 [HC103A, reference compound]
effect on DosS autophosphorylation (DosS): strongly inhibited

O=C(Nc1ccno1)NC1CCCC1 [MSU-41546, 1-cyclopentyl-3-(1,2-oxazol-5-yl)urea]
melting point: 182 °C

O=C(Nc1cccc(Cl)c1)Nc1ccno1 [MSU-39445, 1-(3-chlorophenyl)-3-(1,2-oxazol-5-yl)urea]
solubility (physchem): > 100 µM | EC50 [1, 8]: 750 nM | melting point: 159 °C (dec.)

O=C(Nc1ccc(Cl)cc1)Nc1ccno1 [HC106F, 1-(4-chlorophenyl)-3-(1,2-oxazol-5-yl)urea]
solubility (physchem): > 200 µM | Microsomes (% remaining @ 30 minutes) ([5]; microsomes, 0.5 h): 115% remaining | fold enhanced activity relative to HC106A [1]: ~10 fold | fold enhanced activity relative to HC106A ([1]; whole cell assay): ~2 fold | melting point: 183 °C

O=C(Nc1ccc(-c2ccccc2)cc1)Nc1ccno1 [MSU-41443, 1-{[1,1′-biphenyl]-4-yl}-3-(1,2-oxazol-5-yl)urea]
solubility (physchem): 14 µM (≈ 3.91 µg/mL) | melting point: 193 °C

O=C(Nc1ccno1)Nc1ccc(Cl)cc1Cl [HC106A]
solubility (physchem): 110 µM (≈ 29.9 µg/mL) | additional genes repressed that were not repressed in CDC1551(ΔdosR) (DosR regulon): 35 genes | genes from dosR regulon inhibited (DosR regulon): 53 genes | reduction of TAG accumulation (TAG accumulation in Mtb): ~50% | effect on DosRST signaling alone ([6]; 200 nM HC106A alone): no effect on its own | inhibition of hspX following DETA-NONOate treatment [2]: 362 fold | inhibition of tgs1 following DETA-NONOate treatment [2]: 151 fold | inhibition of hspX transcripts following vitamin C treatment [2]: 78 fold | inhibition of tgs1 transcripts following vitamin C treatment [2]: 14 fold | effect on DosS autophosphorylation (DosS): no inhibitory activity; also recorded: no effect | inhibition of hspX and tgs1 gene expression during hypoxia [3]: repressed to undetectable levels | inhibition of hspX and tgs1 gene expression during hypoxia ([3]; listed as H106A): strongly inhibited | downregulation of dosR [3]: 49 fold | downregulation of hspX [3]: 1360 fold | downregulation of tgs1 [3]: 1424 fold | inhibition of hspX induction [4]: 6 fold | inhibition of tgs1 induction [4]: 4 fold | impact on Mtb growth (Mtb): minimal impact | survival relative to DMSO control during NRP (Mtb CDC1551): 50% | reduction of survival as compared to DMSO control (Mtb CDC1551; hypoxic shift-down model): 50% | inhibition of hspX, DosS overexpression ([7]; pVV16-DosS): 23 fold | inhibition of tgs1, DosS overexpression ([7]; pVV16-DosS): 16.5 fold | downregulation of hspX, vector control ([7]; pVV16 empty vector): 2331 fold | downregulation of tgs1, vector control ([7]; pVV16 empty vector): 3470 fold

O=C(Nc1ccc(C(F)(F)F)cc1)Nc1ccno1 [MSU-41463, 3-(1,2-oxazol-5-yl)-1-[4-(trifluoromethyl)phenyl]urea]
Microsomes (% remaining @ 30 minutes) ([5]; 30 minutes): 84 % remaining | melting point: 178 °C

CC(C)CNC(=O)Nc1ccno1 [MSU-41542, 3-(2-methylpropyl)-1-(1,2-oxazol-5-yl)urea]
melting point: 187 °C

O=C(Nc1ccno1)NC1CCCCC1 [MSU-42002, 1-cyclohexyl-3-(1,2-oxazol-5-yl)urea]
melting point: 180 °C

O=C(Nc1ccc(Cl)cn1)Nc1ccno1 [MSU-39450, 1-(5-chloropyridin-2-yl)-3-(1,2-oxazol-5-yl)urea]
melting point: 122 to 123 °C

C[C@@H]1CC[C@H]2[C@@H](C)C(=O)O[C@@H]3O[C@@]4(C)CC[C@@H]1[C@]32OO4 [artemisinin, reference compound]
inhibition at 0.5 µM ([6]; Mycobacterium tuberculosis, 500 nM artemisinin alone): 40% | maximum inhibition of hspX ([3]; maximum inhibition): 51 fold | maximum inhibition of tgs1 ([3]; maximum inhibition): 166 fold

O=C1O[C@H]([C@@H](O)CO)C(O)=C1O [vitamin C, reference compound]
induction of hspX by the inducer [2]: 2162 fold | induction of tgs1 by the inducer [2]: 58 fold

O=C(Nc1cccc(Br)c1)Nc1ccno1 [MSU-42003, 1-(3-bromophenyl)-3-(1,2-oxazol-5-yl)urea]
melting point: 157 °C
